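Following 48 hours of exposure in 96-well plates, responses at five concentrations were used to interpolate endpoints linearly. GI50: concentration for 50% inhibition of growth. At the TGI there is no net growth.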
Key:
Test in all cases: growth of human tumour cells (NCI), 48 h
NCI-H522 lung = test system: NCI-H522 lung
HCC-2998 colon = test system: HCC-2998 colon
SK-MEL-2 melanoma = test system: SK-MEL-2 melanoma
UO-31 renal = test system: UO-31 renal
K-562 leukemia = test system: K-562 leukemia
RPMI-8226 leukemia = test system: RPMI-8226 leukemia
EKVX NSCLC = test system: EKVX NSCLC
SK-MEL-28 melanoma = test system: SK-MEL-28 melanoma
IGROV1 ovarian = test system: IGROV1 ovarian
COLO 205 colon = test system: COLO 205 colon

With `COc1cc2c3c(n(CCCN4CCC(N)CC4)c(=O)c2cc1OC)-c1cc2c(cc1C3=O)OCO2` as the compound, how does the GI50 (NCI-H522 lung) read?
The GI50 was 3.4 µM.

What about the TGI (NCI-H522 lung) of the same compound?
The TGI was 21.7 µM.

What about the GI50 (HCC-2998 colon) of the same compound?
Its GI50 is 0.143 µM.

And the TGI (HCC-2998 colon)?
Its TGI is 3.52 µM.

And the GI50 (SK-MEL-2 melanoma)?
Its GI50 is 3.68 µM.

What about the TGI (SK-MEL-2 melanoma) of the same compound?
The TGI was 24.2 µM.

What about the GI50 (UO-31 renal) of the same compound?
The GI50 was 2.32 µM.

And the TGI (UO-31 renal)?
Its TGI is 16.5 µM.

And the GI50 (K-562 leukemia)?
The GI50 was 0.587 µM.

What about the TGI (K-562 leukemia) of the same compound?
Its TGI is 6.91 µM.

And the GI50 (RPMI-8226 leukemia)?
Its GI50 is 0.202 µM.

And the TGI (RPMI-8226 leukemia)?
The TGI was 1.02 µM.

And the GI50 (EKVX NSCLC)?
The GI50 was 1.31 µM.

What about the TGI (EKVX NSCLC) of the same compound?
Its TGI is 3.87 µM.

And the GI50 (SK-MEL-28 melanoma)?
Its GI50 is 0.983 µM.

And the TGI (SK-MEL-28 melanoma)?
Its TGI is 2.9 µM.

And the GI50 (IGROV1 ovarian)?
Its GI50 is 1.7 µM.

What about the TGI (IGROV1 ovarian) of the same compound?
The TGI was 16 µM.

And the GI50 (COLO 205 colon)?
The GI50 was 2.86 µM.

And the TGI (COLO 205 colon)?
The TGI was 7.38 µM.
